What was measured:
[1] = target: T1, COX I (Ovis aries, UniProt P05979); assay: Purified cyclooxygenase (COX) inhibition; type: biochemical, ram; conditions: arachidonic acid 100 μM, 2.0 min, 37° C.
T1 construct: The COX was purified from ram seminal vesicles; from tissue; host or cells: ram seminal vesicles
T1 sequence (P05979 25-600): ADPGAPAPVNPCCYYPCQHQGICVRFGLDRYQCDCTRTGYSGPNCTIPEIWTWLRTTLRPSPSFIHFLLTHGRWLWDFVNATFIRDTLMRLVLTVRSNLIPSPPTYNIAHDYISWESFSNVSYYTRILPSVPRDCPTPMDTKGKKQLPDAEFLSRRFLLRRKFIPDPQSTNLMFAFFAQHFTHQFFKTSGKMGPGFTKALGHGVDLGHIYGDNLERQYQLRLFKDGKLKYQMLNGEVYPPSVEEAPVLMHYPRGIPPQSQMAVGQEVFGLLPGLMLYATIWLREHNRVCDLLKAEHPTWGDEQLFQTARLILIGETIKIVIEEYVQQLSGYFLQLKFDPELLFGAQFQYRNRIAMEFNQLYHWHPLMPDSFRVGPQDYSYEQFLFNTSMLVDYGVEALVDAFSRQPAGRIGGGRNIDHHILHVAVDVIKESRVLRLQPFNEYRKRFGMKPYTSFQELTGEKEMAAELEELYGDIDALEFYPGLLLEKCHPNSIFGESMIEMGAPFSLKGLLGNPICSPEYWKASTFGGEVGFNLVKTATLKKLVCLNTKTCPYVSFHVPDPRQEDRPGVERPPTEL
Procedure: COX catalyzes the formation of prostaglandins and thromboxane by the oxidative metabolism of arachidonic acid. The compound of Example 1 of this invention, as well as a positive control, (sulindac sulfide) were evaluated to determine whether they inhibited purified cyclooxygenase Type I (see Table 1 below).
The compounds useful in the practice of this invention were evaluated for inhibitory effects on purified COX. The COX was purified from ram seminal vesicles, as described by Boopathy, R. and Balasubramanian, J., 239:371-377, 1988. COX activity was assayed as described by Evans, A. T., et al., “Actions of Cannabis Constituents on Enzymes Of Arachidonate Metabolism Anti-Inflammatory Potential,” Biochem. Pharmacol., 36:2035-2037, 1987. Briefly, purified COX was incubated with arachidonic acid (100 μM) for 2.0 min at 37° C. in the presence or absence of test compounds. The assay was terminated by the addition of TCA, and COX activity was determined by absorbance at 530 nm.

[2] = target: T2, GST-cGB-PDE5 fusion protein (Homo sapiens, UniProt O76074); assay: cGMP binding assay with GST-cGB-PDE5 fusion protein; conditions: 3H-cGMP 2 μM, 22° C., 1 hour
T2 construct: made in house; host or cells: E. coli BL21 (DE3)
Procedure: 5′-3′, Inc. kits for total RNA followed by oligo (dT) column purification of mRNA are used with HT-29 cells. […] It is then cloned into pGEX-5X-3 glutathione-S-transferase (GST) fusion vector (Pharmacia Biotech) with tac promoter, and EcoRI and XhoI cut sites. The fusion vector is then transfected into E. Coli BL21 (DE3) bacteria (Invitrogen). The transfected BL21 bacteria is grown to log phase, and then IPTG is added as an inducer. The induction is carried at 20° C. for 24 hrs. The bacteria are harvested and lysed. The soluble cell lysate is incubated with GSH conjugated Sepharose 4B (GSH-Sepharose 4B). The GST-cGB-PDE5 fusion protein can bind to the GSH-Sepharose beads, and the other proteins are washed off from beads with excessive cold PBS.
Then, the mixture is transferred to Brandel MB-24 cell harvester with GF/B as the filter membrane followed by 2 washes with 10 mL of cold 5 mM potassium buffer( pH 6.8). The membranes are then cut out and transferred to scintillation vials followed by the addition of 1 mL of H2O and 6 mL of Ready Safe™ liquid scintillation cocktail to each vial. The vials are counted on a Beckman LS 6500 scintillation counter.
The quenching by filter membrane or other debris are also calibrated.

[3] = tested on: PKG1β; assay: Western blot of PKG1β in SW480 cells; type: cell-based, human; conditions: various concentrations, 48 hours
Procedure: (§1) 50 μg protein/lane were analyzed by Western blot analysis using specific anti-PKG1β and anti-GSK3β-phospho-ser9 antibodies.

[4] = tested on: GSK3β; assay: Western blot of GSK3β-phospho-ser9 in SW480 cells; type: cell-based, human; conditions: various concentrations, 48 hours, vs 0 concentration
Procedure: as §1

[5] = tested on: PKG; assay: Western blot of PKG protein in SW480 cells; type: cell-based, human; conditions: 48 hours, vs vehicle 0.1% DMSO
Procedure: (§2) SW480 cells treated with exisulind as described previously are harvested from the microfuge tubes by rinsing once with ice-cold PBS. The cells are lysed by modified RIPA buffer for 15 minutes with agitation. The cell lysate is spun down in a cold room. The supernatants are transferred to fresh microcentrifuge tubes immediately after spinning. BioRad DC Protein Assay (Temecula, Calif.) is performed to determine the protein concentrations in samples. The samples are normalized for protein concentration, as described above.
(§3) 50 μg of each sample is loaded to 10% SDS gel. SDS-PAGE is performed, and the proteins then are transferred to a nitrocellulose membrane. The blotted nitrocellulose membrane are blocked in freshly prepared TBST containing 5% nonfat dry milk for one hour at room temperature with constant agitation.
A goat-anti-PKG primary antibody is diluted to the recommended concentration/dilution in fresh TBST/5% nonfat dry milk. The nitrocellulose membrane is placed in the primary antibody solution and incubated one hour at room temperature with agitation. The nitrocellulose membrane is washed three times for ten minutes each with TBST. The nitrocellulose membrane is incubated in a solution containing a secondary POD conjugated rabbit anti-goat antibody for 1 hour at room temperature with agitation. The nitrocellulose membrane is washed three times for ten minutes each time with TBST. […]

[6] = tested on: PKG; assay: PKG activity assay on lysates of drug-treated HCT116 colon cancer cells; type: cell-based, human; conditions: HCT116 cells (β-catenin mutation, no APC mutation), same procedure as SW480
Description: HCT116 is known to contain the β-catenin mutation, but is known not to contain the APC mutation.
The same procedure is used to grow the HCT116 cells as is used in the SW480 procedure described above. In this experiment, only exisulind and controls were used.

[7] = tested on: PKG; assay: PKG activity assay on lysates of drug-treated SW480 colon cancer cells (32P phosphorylation of PDE5/GST substrate); type: cell-based, human; conditions: SW480 cells treated 48 hrs; exisulind 200, 400, 600 μM, E4021 0.1, 1, 10 μM; assay with and without added cGMP
Procedure: A compound that inhibits all these types of PDE is desirable, accordingly. Below, we provide examples of such PDE-inhibiting compounds.
SW 480 is known to contain the APC mutation. About 5 million SW480 cells in RPMI 5% serum are added to each of 8 dishes:
2-10 cm dishes - - - 30 μL DMSO vehicle control (without drug),
3-10 cm dishes - - - 200 μM, 400 μM, 600 μM exisulind in DMSO, and
The dishes are incubated for 48 hrs at 37° C. in 5% CO2 incubator.
The liquid media are aspirated from the dishes (the cells will attach themselves to the dishes). The attached cells are washed in each dish with cold PBS, and 200 μL cell lysis buffer (i.e., 50 mM Tris-HCl, 1% NP-40, 150 mM NaCl, 1 mM EDTA, 1 mM Na3VO4, 1 mM NaF, 500 μM IBMX with proteinase inhibitors) is added to each dish. Immediately after the cell lysis buffer is added, the lysed cells are collected by scraping the cells off each dish. The cell lysate from each dish is transferred to a microfuge tube, and the microfuge tubes are incubated at 4° C. for 15 minutes while gently agitating the microfuge tubes to allow the cells to lyse completely. […]
For each control or drug cell lysate sample to be evaluated, the reaction is started by adding phosphorylation buffer containing 10 μCi ^32P-γ-ATP solution (200 μM ATP, 4.5 mM MgCl; 5 mM KH2PO4; 5 mM K2HPO4;) to each mixture. […]

[8] = tested on: β-catenin; assay: Western blot of β-catenin in SW480 cells; type: cell-based, human
Procedure: as §2, §3
SW480 cells were treated with exisulind or vehicle (0.1% DMSO) for 48 hours. 50 μg supernatant of each cell lysates were loaded to 10% SDS-gel and blotted to nitrocellulose membrane, and the membrane was probed with rabbit-anti-β-catenin and rabbit anti-PKG antibodies.
This observation was made by culturing SW480 cells with either 200, 400 or600 μM exisulind or vehicle (0.1% DMSO). The cells are harvested 48 hours post treatment and processed for immunoblotting. Immuno-reactive protein can be detected by Western blot. […]

T2 sequence (O76074 46-539 limits assumed): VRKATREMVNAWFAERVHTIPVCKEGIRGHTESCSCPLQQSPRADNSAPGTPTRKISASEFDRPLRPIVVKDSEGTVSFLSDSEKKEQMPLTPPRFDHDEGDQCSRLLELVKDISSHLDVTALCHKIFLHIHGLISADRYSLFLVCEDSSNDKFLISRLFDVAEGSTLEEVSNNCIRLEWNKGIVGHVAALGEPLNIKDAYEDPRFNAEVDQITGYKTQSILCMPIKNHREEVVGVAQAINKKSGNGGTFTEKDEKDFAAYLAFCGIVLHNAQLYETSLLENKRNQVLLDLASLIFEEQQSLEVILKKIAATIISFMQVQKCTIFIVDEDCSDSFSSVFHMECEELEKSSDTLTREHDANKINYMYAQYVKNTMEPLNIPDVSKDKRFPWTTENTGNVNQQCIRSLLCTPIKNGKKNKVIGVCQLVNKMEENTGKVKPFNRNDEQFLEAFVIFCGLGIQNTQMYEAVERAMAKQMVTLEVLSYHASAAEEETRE

Compound | inhibition at 100 µM [1] | competition with cGMP for the cGMP binding sites [2] | PKG1 induction [3] | GSK3β inactivation by Ser9 phosphorylation [4] | PKG protein level by Western blot [5] | PKG activation relative to controls [6] | PKG activity relative to control [7] | reduction of β-catenin expression compared to control ([8]; SW480 cells, 200, 400 or 600 μM, harvested 48 hours post treatment) | β-catenin level by Western blot ([8]; SW480 cells, 48 hours, vs vehicle 0.1% DMSO)
CC1=C(CC(=O)NCc2ccccc2)c2cc(F)ccc2/C1=C\c1ccncc1 [Example 1, (Z)-5-Fluoro-2-Methyl-(4-Pyridinylidene)-3-(N-Benzyl)-Indenylacetamide] | < 25% |  |  |  |  |  |  |  | 
CC1=C(CC(=O)O)c2cc(F)ccc2/C1=C\c1ccc(S(C)(=O)=O)cc1 [exisulind] |  | None of the PDE5 inhibitors showed any competition with cGMP in binding | PKG1 induction in a dose-dependent manner | inactivated in vivo by phosphorylation of its Ser9 | increase of PKG | PKG activation occurred | causes PKG activity to increase in a dose-dependent manner | 50% | drop of β-catenin

Reference: patent US20030194750A1, “Methods for treatment of diseases where GSK 3-beta is desired, and methods to identify compounds usefule for that” (priority 2002, published 2003)
